The values that follow are results of earlier work, collected in patent US20070160667A1, “Controlled release formulation of divalproex sodium” (priority 2006, published 2007).

Molecules are shown by their SMILES. Read-outs that look alike come from different tables or passages of the source.

Turning to `CCCC(CCC)C(=O)O` [valproic acid, 2-Propylpentanoic acid], the elimination half-life entry (in adults) is “six and seventeen”; the elimination half-life result (in children) is “four and fourteen”.
